From patent US7767671B2, “3-Quinolinecarbonitrile protein kinase inhibitors” (Wyeth, priority 2004, dated 2010)

What was measured:
[1] = target: T1, Raf and/or Mek kinase (human c-Raf, GST-MEK1) (Homo sapiens, UniProt P04049+Q02750); assay: Raf/Mek kinase cascade assay; assay type: biochemical; settings: c-Raf dependent activation of GST-MEK and GST-MAPK, phospho-MAPK ELISA; (a)/(b)/(c) = average of two/three/four runs
T1 construct: Sf9 insect cell lysate containing full length 6his-tagged recombinant human c-Raf; 6His; host or cells: Sf9 insect cells (c-Raf, used as lysate); E. coli (MEK1-GST, GST-MAPK)
Procedure, shortened: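 Cascade run with c-Raf (0.4 U) activating non-active GST-MEK1 and GST-p42 MAPK in MOPS pH 7.2 buffer with ATP/MgCl2, 60 min at 30 °C. Phospho-MAPK captured on anti-GST plates and read with anti-phospho-MAPK and europium-conjugated secondary antibody. Single-point % inhibition at […]; IC50 over 10 µM–1 nM half-log dilutions.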

LoVo = assay: Cell based screen for inhibitors of Raf and/or Mek kinase (SRB), LoVo; parameters: species or system human; settings: Homo sapiens, 96 h, LoVo cells, four days incubation, (a)/(b)/(c) = average of two/three/five runs
Procedure: Cell Based Screen for Inhibitors of Raf and/or Mek Kinase. Materials
Cell Lines: Human adenocarcinoma cell line LoVo, known to be growth inhibited by low nM concentrations of a reference standard inhibitor of Ras and human adenocarcinoma cell line CaCo-2, known to be growth resistant to the same reference compound.
Cell Media: RPMI 1640 with 10% Fetal Bovine Serum supplemented with L-glutamine and Penicillin/Streptomycin.
Cells are plated at 2000 cells per well for cell line LoVo and 1500 cells for cell line CaCo-2 in 96 well plates. Cells are plated in media (200 μl) and allowed to adhere overnight at 37° C. At 24 hours post plating, compounds are added directly at a volume of 0.5 μl. For the qualitative screen (compounds screened at 25 μM) compound is added directly to cells. For the quantitative screen, compound is first diluted in DMSO to generate concentrations of compound or reference standard of: 1, 5, 10 and 25 μM. It is advisable to make the dilutions in an identical 96 well plate so that compounds can be added using a multichannel micropipettor set at 0.5 μl. The cells are then incubated for four days after which the media is removed using a 12 well manifold by first tipping the plate forward at a 45 degree angle and then inserting the manifold in an upright orientation to prevent the tips of the manifold from disturbing cells at the bottom of the plate. 200 μl of normal saline is then added to each well using an 8 well multichannel pipettor, followed by the careful addition of 50 μl of 50% TCA. The plates are then incubated for 2 hours at 4° C., after which the supernatant is removed using the same technique as above and the plated cells are washed twice with 200 μl water. The plates are then air dried and 50 μl of SRB stock solution is carefully added so that the entire bottom of each well is covered. This again can be done using an 8 well multichannel pipettor. The SRB is incubated with fixed cells for 15 minutes at room temperature after which the SRB is removed with the manifold as described above and the plates washed twice with 350 μl of 1% acetic acid per well each time. The plates are then air dried after which the bound SRB is released from protein by the addition of 200 μl of Tris base. Resolubilizing the SRB is aided by placing the plates on a rotator for 15-30 minutes. The absorbance of each well is determined at 550 or 562 nm using a microtiter plate reader.
Each compound or dilution thereof is performed in triplicate. Outliers are identified by visual inspection of the data. Each plate should have a “0” control (vehicle only).
Quantitative Assay: A standard curve is constructed by plotting the concentration of compound against the average absorbance calculated at that concentration. A curve is plotted and the concentration at which the curve passes through the 50% the absorbance mark seen in the “0” control well is the IC50 calculated for that compound. Multiple entries for a given compound indicate that it is tested multiple times.

T1 sequence (P04049 whole entry): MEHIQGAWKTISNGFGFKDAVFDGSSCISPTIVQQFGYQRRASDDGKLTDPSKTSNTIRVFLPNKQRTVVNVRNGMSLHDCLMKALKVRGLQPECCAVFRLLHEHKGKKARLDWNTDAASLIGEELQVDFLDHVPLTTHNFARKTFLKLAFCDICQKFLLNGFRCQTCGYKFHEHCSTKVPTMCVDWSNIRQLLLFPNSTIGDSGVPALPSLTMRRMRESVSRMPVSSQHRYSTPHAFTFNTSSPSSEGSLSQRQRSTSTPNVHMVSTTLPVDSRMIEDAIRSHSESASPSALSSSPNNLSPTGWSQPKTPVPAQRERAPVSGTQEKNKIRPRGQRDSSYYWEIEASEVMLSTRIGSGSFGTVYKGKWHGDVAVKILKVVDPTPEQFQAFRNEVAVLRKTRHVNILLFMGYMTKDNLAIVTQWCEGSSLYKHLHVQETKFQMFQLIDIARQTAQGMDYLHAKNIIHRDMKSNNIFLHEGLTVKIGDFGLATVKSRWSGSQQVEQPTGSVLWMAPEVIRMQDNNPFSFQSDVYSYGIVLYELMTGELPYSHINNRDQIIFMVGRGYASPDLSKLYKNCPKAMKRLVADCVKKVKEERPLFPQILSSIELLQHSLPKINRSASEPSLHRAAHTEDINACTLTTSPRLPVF
T1 sequence (Q02750 whole entry): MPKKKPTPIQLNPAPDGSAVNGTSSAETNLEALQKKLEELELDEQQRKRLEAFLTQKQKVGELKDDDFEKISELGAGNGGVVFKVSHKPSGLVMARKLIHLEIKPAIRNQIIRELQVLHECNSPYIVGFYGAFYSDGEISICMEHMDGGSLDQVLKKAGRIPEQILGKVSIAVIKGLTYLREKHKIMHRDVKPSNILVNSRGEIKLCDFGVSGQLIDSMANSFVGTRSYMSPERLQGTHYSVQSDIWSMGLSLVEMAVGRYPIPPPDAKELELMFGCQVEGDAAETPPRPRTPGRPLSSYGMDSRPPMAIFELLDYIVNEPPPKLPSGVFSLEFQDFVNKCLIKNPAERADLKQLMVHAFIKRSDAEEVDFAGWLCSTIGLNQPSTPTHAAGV

IC50 [1]: 20 nM
IC50 (LoVo): 900 nM
melting point: 141 °C (dec.)
Structure (SMILES): COc1cc2c(Nc3ccc(Oc4ccccc4)cc3)c(C#N)cnc2cc1OCCN1CCC(N2CCCCC2)CC1 [Example 32, 7-(2-[1,4′]Bipiperidinyl-1′-yl-ethoxy)-6-methoxy-4-(4-phenoxy-phenylamino)-quinoline-3-carbonitrile]
